Experimental data reported in ChEMBL document CHEMBL3045943, “Novel N-aryl(alkaryl)-2-[(3-R-2-oxo-2H-[1,2,4]triazino[2,3-c]quinazoline-6-yl)thio]acetamides: synthesis, cytotoxicity, anticancer activity, COMPARE analysis and docking” (2013).

Columns and labels:
Format in all cases: functional
[1] = tested on: U-251; assay: Cytotoxicity against Homo sapiens (human) U251 cells assessed as cell growth at 10 uM after 48 hr by SRB assay relative to control; settings: U-251, 48 h, read-out: Activity
[2] = tested on: TK-10; assay: Cytotoxicity against Homo sapiens (human) TK10 cells assessed as cell growth at 10 uM after 48 hr by SRB assay relative to control; settings: TK-10, 48 h, read-out: Activity
[3] = tested on: SW-620; assay: Cytotoxicity against Homo sapiens (human) SW620 cells assessed as cell growth at 10 uM after 48 hr by SRB assay relative to control; settings: SW-620, 48 h, read-out: Activity
[4] = tested on: UACC-62; assay: Cytotoxicity against Homo sapiens (human) UACC62 cells assessed as cell growth at 10 uM after 48 hr by SRB assay relative to control; settings: UACC-62, 48 h, read-out: Activity
[5] = tested on: SF-539; assay: Cytotoxicity against Homo sapiens (human) SF539 cells assessed as cell growth at 10 uM after 48 hr by SRB assay relative to control; settings: SF-539, 48 h, read-out: Activity
[6] = tested on: SK-MEL-2; assay: Cytotoxicity against Homo sapiens (human) SK-MEL-2 cells assessed as cell growth at 10 uM after 48 hr by SRB assay relative to control; settings: SK-MEL-2, 48 h, read-out: Activity
[7] = tested on: A498; assay: Cytotoxicity against Homo sapiens (human) A498 cells after 48 hr by SRB assay; settings: A498, 48 h
[8] = tested on: Photobacterium leiognathi; assay: Growth inhibition of Photobacterium leiognathi Sh1 assessed as bio-luminescence at 0.1 mg/ml after 10 min by acute action test relative to control; parameters: scale not given: the % may be the effect or the level left
[9] = tested on: OVCAR-3; assay: Cytotoxicity against Homo sapiens (human) OVCAR3 cells assessed as cell growth at 10 uM after 48 hr by SRB assay relative to control; settings: OVCAR-3, 48 h, read-out: Activity
[10] = tested on: Photobacterium leiognathi; assay: Growth inhibition of Photobacterium leiognathi Sh1 assessed as bio-luminescence at 0.25 mg/ml after 10 min by acute action test relative to control; parameters: scale not given: the % may be the effect or the level left
[11] = tested on: NCI-H522; assay: Cytotoxicity against Homo sapiens (human) NCI-H522 cells assessed as cell growth at 10 uM after 48 hr by SRB assay relative to control; settings: NCI-H522, 48 h, read-out: Activity
[12] = tested on: A549; assay: Cytotoxicity against Homo sapiens (human) A549 cells assessed as cell growth at 10 uM after 48 hr by SRB assay relative to control; settings: A549, 48 h, read-out: Activity
[13] = tested on: DU-145; assay: Cytotoxicity against Homo sapiens (human) DU145 cells assessed as cell growth at 10 uM after 48 hr by SRB assay relative to control; settings: DU-145, 48 h, read-out: Activity
[14] = tested on: LOX IMVI; assay: Cytotoxicity against Homo sapiens (human) LOXIMVI cells assessed as cell growth at 10 uM after 48 hr by SRB assay relative to control; settings: read-out: Activity
[15] = tested on: OVCAR-4; assay: Cytotoxicity against Homo sapiens (human) OVCAR4 cells assessed as cell growth at 10 uM after 48 hr by SRB assay relative to control; settings: OVCAR-4, 48 h, read-out: Activity
[16] = tested on: OVCAR-8; assay: Cytotoxicity against Homo sapiens (human) OVCAR8 cells assessed as cell growth at 10 uM after 48 hr by SRB assay relative to control; settings: OVCAR-8, 48 h, read-out: Activity
[17] = tested on: HCT-116; assay: Cytotoxicity against Homo sapiens (human) HCT116 cells assessed as cell growth at 10 uM after 48 hr by SRB assay relative to control; settings: HCT-116, 48 h, read-out: Activity
[18] = tested on: Photobacterium leiognathi; assay: Growth inhibition of Photobacterium leiognathi Sh1 assessed as bio-luminescence at 0.1 mg/ml after 16 to 18 hr by chronic action test relative to control; parameters: scale not given: the % may be the effect or the level left
[19] = tested on: HOP-62; assay: Cytotoxicity against Homo sapiens (human) HOP62 cells after 48 hr by SRB assay; settings: HOP-62, 48 h
[20] = tested on: SK-MEL-5; assay: Cytotoxicity against Homo sapiens (human) SK-MEL-5 cells assessed as cell growth at 10 uM after 48 hr by SRB assay relative to control; settings: SK-MEL-5, 48 h, read-out: Activity
[21] = tested on: Photobacterium leiognathi; assay: Growth inhibition of Photobacterium leiognathi Sh1 assessed as bio-luminescence at 0.025 mg/ml after 10 min by acute action test relative to control; parameters: scale not given: the % may be the effect or the level left
[22] = tested on: SNB-75; assay: Cytotoxicity against Homo sapiens (human) SNB75 cells assessed as cell growth at 10 uM after 48 hr by SRB assay relative to control; settings: SNB-75, 48 h, read-out: Activity
[23] = Cytotoxicity against Homo sapiens (human) NCI-ADR-RES cells assessed as cell growth at 10 uM after 48 hr by SRB assay relative to control; settings: read-out: Activity
[24] = tested on: SNB-75; assay: Cytotoxicity against Homo sapiens (human) SNB75 cells after 48 hr by SRB assay; settings: SNB-75, 48 h
[25] = tested on: 786-0; assay: Cytotoxicity against Homo sapiens (human) 786-0 cells assessed as cell growth at 10 uM after 48 hr by SRB assay relative to control; settings: 786-0, 48 h, read-out: Activity
[26] = tested on: NCI-H460; assay: Cytotoxicity against Homo sapiens (human) NCI-H460 cells assessed as cell growth at 10 uM after 48 hr by SRB assay relative to control; settings: NCI-H460, 48 h, read-out: Activity
[27] = tested on: U-251; assay: Cytotoxicity against Homo sapiens (human) U251 cells after 48 hr by SRB assay; settings: U-251, 48 h
[28] = tested on: MDA-MB-231; assay: Cytotoxicity against Homo sapiens (human) MDA-MB-231 cells after 48 hr by SRB assay; settings: MDA-MB-231, 48 h
[29] = tested on: Photobacterium leiognathi; assay: Growth inhibition of Photobacterium leiognathi Sh1 assessed as bio-luminescence at 0.25 mg/ml after 16 to 18 hr by chronic action test relative to control; parameters: scale not given: the % may be the effect or the level left
[30] = tested on: RXF 393; assay: Cytotoxicity against Homo sapiens (human) RXF393 cells assessed as cell growth at 10 uM after 48 hr by SRB assay relative to control; settings: RXF 393, 48 h, read-out: Activity
[31] = tested on: MDA-MB-231; assay: Cytotoxicity against Homo sapiens (human) MDA-MB-231 cells assessed as cell growth at 10 uM after 48 hr by SRB assay relative to control; settings: MDA-MB-231, 48 h, read-out: Activity
[32] = tested on: MCF7; assay: Cytotoxicity against Homo sapiens (human) MCF7 cells assessed as cell growth at 10 uM after 48 hr by SRB assay relative to control; settings: MCF7, 48 h, read-out: Activity
[33] = tested on: Photobacterium leiognathi; assay: Growth inhibition of Photobacterium leiognathi Sh1 assessed as bio-luminescence at 0.025 mg/ml after 16 to 18 hr by chronic action test relative to control; parameters: scale not given: the % may be the effect or the level left
[34] = tested on: MDA-MB-435; assay: Cytotoxicity against Homo sapiens (human) MDA-MB-435 cells assessed as cell growth at 10 uM after 48 hr by SRB assay relative to control; settings: MDA-MB-435, 48 h, read-out: Activity
[35] = tested on: PC-3; assay: Cytotoxicity against Homo sapiens (human) PC3 cells assessed as cell growth at 10 uM after 48 hr by SRB assay relative to control; settings: PC-3, 48 h, read-out: Activity
[36] = tested on: HOP-92; assay: Cytotoxicity against Homo sapiens (human) HOP92 cells assessed as cell growth at 10 uM after 48 hr by SRB assay relative to control; settings: HOP-92, 48 h, read-out: Activity
[37] = tested on: HT-29; assay: Cytotoxicity against Homo sapiens (human) HT-29 cells assessed as cell growth at 10 uM after 48 hr by SRB assay relative to control; settings: HT-29, 48 h, read-out: Activity
[38] = tested on: Hs-578T; assay: Cytotoxicity against Homo sapiens (human) Hs 578T cells assessed as cell growth at 10 uM after 48 hr by SRB assay relative to control; settings: read-out: Activity
[39] = tested on: UO-31; assay: Cytotoxicity against Homo sapiens (human) UO31 cells assessed as cell growth at 10 uM after 48 hr by SRB assay relative to control; settings: UO-31, 48 h, read-out: Activity
[40] = tested on: UACC-257; assay: Cytotoxicity against Homo sapiens (human) UACC257 cells assessed as cell growth at 10 uM after 48 hr by SRB assay relative to control; settings: UACC-257, 48 h, read-out: Activity
[41] = tested on: SN12C; assay: Cytotoxicity against Homo sapiens (human) SN12C cells assessed as cell growth at 10 uM after 48 hr by SRB assay relative to control; settings: read-out: Activity
[42] = tested on: A498; assay: Cytotoxicity against Homo sapiens (human) A498 cells assessed as cell growth at 10 uM after 48 hr by SRB assay relative to control; settings: A498, 48 h, read-out: Activity
[43] = tested on: SR; assay: Cytotoxicity against Homo sapiens (human) SR cells assessed as cell growth at 10 uM after 48 hr by SRB assay relative to control; settings: read-out: Activity
[44] = tested on: Malme-3M; assay: Cytotoxicity against Homo sapiens (human) MALME-3M cells assessed as cell growth at 10 uM after 48 hr by SRB assay relative to control; settings: read-out: Activity
[45] = tested on: ACHN; assay: Cytotoxicity against Homo sapiens (human) ACHN cells assessed as cell growth at 10 uM after 48 hr by SRB assay relative to control; settings: read-out: Activity
[46] = tested on: BT-549; assay: Cytotoxicity against Homo sapiens (human) BT549 cells assessed as cell growth at 10 uM after 48 hr by SRB assay relative to control; settings: BT-549, 48 h, read-out: Activity

`O=C(CSc1nc2ccccc2c2nc(=O)c(-c3ccccc3)nn12)NCc1ccccc1F` gave a growth at 10 µM [1] of 2.29%, a growth at 10 µM [2] of 46.3% and a growth at 10 µM [3] of 31%. The growth at 10 µM [4] was 41.2%, the growth at 10 µM [5] was 20.9% and the growth at 10 µM [6] was 50.3%. For the same molecule, the GI50 [7] was 1.29 µM, the LC50 [7] was over 100 µM and the TGI ([7]; read-out: pTGI (converted)) was over 100 µM. For the same molecule, the Activity [8] was 125%, the growth at 10 µM [9] was 9.5% and the Activity [10] was 100%. It also gave a growth at 10 µM [11] of 34.5%, a growth at 10 µM [12] of 26% and a growth at 10 µM [13] of 35.9%. The growth at 10 µM [14] was 50.5%, the growth at 10 µM [15] was -39.5% and the growth at 10 µM [16] was 36.2%. It also gave a growth at 10 µM [17] of 34.5%, an Activity [18] of 75% and a GI50 [19] of 2.82 µM. It also gave an LC50 [19] of over 100 µM, a TGI ([19]; read-out: pTGI (converted)) of over 100 µM and a growth at 10 µM [20] of 47.3%. It also gave an Activity [21] of 118.8%, a growth at 10 µM [22] of 15.8% and a growth at 10 µM [23] of 38.8%. The GI50 [24] was 1.82 µM, the LC50 [24] was over 100 µM and the TGI ([24]; read-out: pTGI (converted)) was over 100 µM. For the same molecule, the growth at 10 µM [25] was 16.5%, the growth at 10 µM [26] was 5.5% and the GI50 [27] was 2.69 µM. For the same molecule, the LC50 [27] was over 100 µM, the TGI ([27]; read-out: pTGI (converted)) was over 100 µM and the GI50 [28] was 2.69 µM. For the same molecule, the CC50 ([28]; read-out: pLC50 (the source's name) (converted)) was over 100 µM, the TGI ([28]; read-out: pTGI) was over 100 µM and the Activity [29] was 54.5%. For the same molecule, the growth at 10 µM [30] was 42.3%, the growth at 10 µM [31] was 48.9% and the growth at 10 µM [32] was 38.2%. For the same molecule, the Activity [33] was 90.6% and the growth at 10 µM [34] was 49.6%.

With `Cc1ccc(CNC(=O)CSc2nc3ccccc3c3nc(=O)c(-c4ccccc4)nn23)cc1` the growth at 10 µM [1] was 63%, the growth at 10 µM [35] was 83% and the growth at 10 µM [5] was 48%. It also gave a growth at 10 µM [36] of 85.6%, an Activity [8] of 106% and a growth at 10 µM [37] of 78.8%. The growth at 10 µM [38] was 62.3%, the Activity [10] was 145.5% and the growth at 10 µM [14] was 78.6%. It also gave a growth at 10 µM [15] of 74.9%, a growth at 10 µM [39] of 61.9% and a growth at 10 µM [16] of 60.9%. The growth at 10 µM [17] was 32.5%, the Activity [18] was 112% and the growth at 10 µM [40] was 71.1%. It also gave a growth at 10 µM [41] of 78.6%, a growth at 10 µM [20] of 81.8% and an Activity [21] of 84.6%. For the same molecule, the growth at 10 µM [22] was 62.5%, the growth at 10 µM [23] was 61.4% and the growth at 10 µM [42] was 75.5%. The growth at 10 µM [25] was 80.2%, the growth at 10 µM [43] was 71.4% and the growth at 10 µM [26] was 72.1%. The growth at 10 µM [44] was 77.2%, the Activity [29] was 140% and the growth at 10 µM [30] was 77.2%. For the same molecule, the growth at 10 µM [31] was 70.5%, the growth at 10 µM [45] was 85.8% and the growth at 10 µM [32] was 79.1%. For the same molecule, the growth at 10 µM [46] was 26.9%, the Activity [33] was 80% and the growth at 10 µM [34] was 67.7%.
